Measurements as given in ChEMBL document CHEMBL5634161, “Discovery of benzamide-based PI3K/HDAC dual inhibitors with marked pro-apoptosis activity in lymphoma cells” (Eur J Med Chem, 2023).
The source made the active and inactive calls. The rule behind the calls is not given here.

Tests used:
[1] = target: Histone deacetylase 2 (Homo sapiens, UniProt Q92769); assay: Inhibition of HDAC2 (unknown origin) using Boc-Lys(acetyl)-AMC as substrate preincubated for 1 hrs followed by substrate addition and measured after 2 hrs by spectrophotometer based fluorometric assay
Histone deacetylase 2, sequence (Q92769 whole entry): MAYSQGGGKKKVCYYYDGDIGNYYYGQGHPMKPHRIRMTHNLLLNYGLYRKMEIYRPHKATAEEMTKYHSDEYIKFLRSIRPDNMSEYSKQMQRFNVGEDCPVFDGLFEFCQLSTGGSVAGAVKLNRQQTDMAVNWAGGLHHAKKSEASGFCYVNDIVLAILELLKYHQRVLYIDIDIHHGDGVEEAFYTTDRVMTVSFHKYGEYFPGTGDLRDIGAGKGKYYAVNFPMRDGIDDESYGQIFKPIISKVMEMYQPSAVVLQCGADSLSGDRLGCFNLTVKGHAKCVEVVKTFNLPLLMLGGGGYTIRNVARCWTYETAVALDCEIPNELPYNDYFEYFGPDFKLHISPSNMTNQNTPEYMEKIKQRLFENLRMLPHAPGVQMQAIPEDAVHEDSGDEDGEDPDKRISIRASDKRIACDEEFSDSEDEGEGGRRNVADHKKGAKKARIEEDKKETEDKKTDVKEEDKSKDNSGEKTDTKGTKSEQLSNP

[2] = target: Histone deacetylase 7 (Homo sapiens, UniProt Q8WUI4); assay: Inhibition of HDAC7 (unknown origin) using Boc-Lys(acetyl)-AMC as substrate preincubated for 1 hrs followed by substrate addition and measured after 2 hrs by spectrophotometer based fluorometric assay
[3] = target: Polyamine deacetylase HDAC10 (Homo sapiens, UniProt Q969S8); assay: Inhibition of HDAC10 (unknown origin) using Boc-Lys(acetyl)-AMC as substrate preincubated for 1 hrs followed by substrate addition and measured after 2 hrs by spectrophotometer based fluorometric assay
Polyamine deacetylase HDAC10, sequence (Q969S8 whole entry): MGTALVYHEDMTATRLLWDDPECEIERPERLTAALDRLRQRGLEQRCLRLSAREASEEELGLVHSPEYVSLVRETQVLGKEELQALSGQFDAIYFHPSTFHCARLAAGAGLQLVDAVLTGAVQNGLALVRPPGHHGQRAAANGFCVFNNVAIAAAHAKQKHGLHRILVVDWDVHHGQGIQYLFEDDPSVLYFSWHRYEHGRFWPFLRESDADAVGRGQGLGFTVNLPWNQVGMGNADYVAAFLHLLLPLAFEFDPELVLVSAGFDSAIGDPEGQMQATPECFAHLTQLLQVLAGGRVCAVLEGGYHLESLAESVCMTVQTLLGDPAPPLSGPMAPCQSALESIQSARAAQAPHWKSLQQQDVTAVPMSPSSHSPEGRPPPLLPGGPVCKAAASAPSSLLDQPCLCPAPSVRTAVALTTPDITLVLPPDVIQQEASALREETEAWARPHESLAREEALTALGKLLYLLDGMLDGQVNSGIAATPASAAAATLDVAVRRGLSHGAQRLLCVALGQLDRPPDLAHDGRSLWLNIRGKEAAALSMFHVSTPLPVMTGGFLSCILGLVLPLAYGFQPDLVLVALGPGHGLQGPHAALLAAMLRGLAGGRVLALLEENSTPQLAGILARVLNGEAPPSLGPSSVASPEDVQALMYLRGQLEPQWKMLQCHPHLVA

[4] = target: Histone deacetylase 11 (Homo sapiens, UniProt Q96DB2); assay: Inhibition of HDAC11 (unknown origin) using Boc-Lys(acetyl)-AMC as substrate preincubated for 1 hrs followed by substrate addition and measured after 2 hrs by spectrophotometer based fluorometric assay
Histone deacetylase 11, sequence (Q96DB2 whole entry, canonical isoform): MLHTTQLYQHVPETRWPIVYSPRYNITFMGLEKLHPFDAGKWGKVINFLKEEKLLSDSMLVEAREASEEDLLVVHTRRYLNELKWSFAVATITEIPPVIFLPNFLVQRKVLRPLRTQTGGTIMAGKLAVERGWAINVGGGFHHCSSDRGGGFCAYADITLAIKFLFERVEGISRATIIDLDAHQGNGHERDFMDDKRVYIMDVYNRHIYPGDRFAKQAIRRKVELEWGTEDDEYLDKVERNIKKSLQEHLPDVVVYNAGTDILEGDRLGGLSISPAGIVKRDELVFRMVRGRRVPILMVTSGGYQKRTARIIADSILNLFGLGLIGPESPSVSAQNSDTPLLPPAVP

[5] = target: Phosphatidylinositol 4,5-bisphosphate 3-kinase catalytic subunit gamma isoform (Homo sapiens, UniProt P48736); assay: Inhibition of PI3Kgamma (unknown origin) using PIP2 as substrate incubated for 1 hrs in presence of ATP by ADP-Glo kinase assay
[6] = tested on: MM1.S; assay: Antiproliferative activity against human MM1.S cells incubated for 48 hrs by resazurin dye based fluorescence micro plate reader analysis; format: functional, cell-based
[7] = tested on: HL-60; assay: Antiproliferative activity against human HL-60 cells incubated for 48 hrs by resazurin dye based fluorescence micro plate reader analysis; format: functional, cell-based; conditions: HL-60, 48 h
[8] = Cytotoxicity against human HL7702 cells incubated for 48 hrs by resazurin dye based fluorescence micro plate reader analysis; format: toxicity, cell-based; conditions: HL7702 (L02) cells
[9] = tested on: JeKo-1; assay: Potency index, ratio of CI994 IC50 to test compound IC50 for antiproliferative activity against human JeKo-1 cells incubated for 48 hrs by resazurin based fluorescence microplate reader analysis; format: functional
[10] = target: CYP2B6 (Homo sapiens, UniProt P20813); assay: Inhibition of CYP2B6 in human liver microsomes using bupropion as substrate at 10 uM in presence of NADPH regenerating system by LC-MS/MS analysis relative to control; format: ADME, Microsome; conditions: probe bupropion
CYP2B6, sequence (P20813 whole entry): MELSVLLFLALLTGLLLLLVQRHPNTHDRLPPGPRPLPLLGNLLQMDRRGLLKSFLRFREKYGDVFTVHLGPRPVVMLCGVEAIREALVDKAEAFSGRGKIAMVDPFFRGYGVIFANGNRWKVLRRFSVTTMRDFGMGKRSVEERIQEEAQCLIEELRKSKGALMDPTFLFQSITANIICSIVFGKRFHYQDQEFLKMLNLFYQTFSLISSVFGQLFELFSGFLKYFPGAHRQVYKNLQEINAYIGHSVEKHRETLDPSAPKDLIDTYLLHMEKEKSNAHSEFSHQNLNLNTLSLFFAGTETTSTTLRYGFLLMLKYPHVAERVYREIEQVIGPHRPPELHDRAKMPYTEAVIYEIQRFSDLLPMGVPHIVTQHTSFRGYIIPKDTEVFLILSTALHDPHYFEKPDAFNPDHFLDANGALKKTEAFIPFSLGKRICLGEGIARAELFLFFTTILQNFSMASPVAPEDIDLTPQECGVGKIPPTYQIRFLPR

[11] = target: CYP2C9 (Homo sapiens, UniProt P11712); assay: Inhibition of CYP2C9 in human liver microsomes using diclofenac as substrate at 10 uM in presence of NADPH regenerating system by LC-MS/MS analysis relative to control; format: ADME, Microsome; conditions: probe diclofenac
CYP2C9, sequence (P11712 whole entry): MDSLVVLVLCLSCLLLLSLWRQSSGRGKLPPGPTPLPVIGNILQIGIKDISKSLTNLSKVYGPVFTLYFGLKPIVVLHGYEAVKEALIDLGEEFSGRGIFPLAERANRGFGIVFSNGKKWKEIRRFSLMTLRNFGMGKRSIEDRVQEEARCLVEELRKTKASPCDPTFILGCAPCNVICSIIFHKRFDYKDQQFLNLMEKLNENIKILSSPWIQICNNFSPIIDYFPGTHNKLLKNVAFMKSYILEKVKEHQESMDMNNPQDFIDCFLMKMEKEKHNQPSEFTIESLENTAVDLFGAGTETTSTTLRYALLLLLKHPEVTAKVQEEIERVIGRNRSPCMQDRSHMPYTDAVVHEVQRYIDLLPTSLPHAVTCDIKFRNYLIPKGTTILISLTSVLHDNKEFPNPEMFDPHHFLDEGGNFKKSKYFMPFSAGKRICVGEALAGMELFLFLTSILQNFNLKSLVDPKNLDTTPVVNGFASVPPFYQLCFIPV

[12] = target: CYP3A4 (Homo sapiens, UniProt P08684); assay: Inhibition of CYP3A4 in human liver microsomes using bufuralol as substrate at 10 uM in presence of NADPH regenerating system by LC-MS/MS analysis relative to control; format: ADME, Microsome; conditions: probe bufuralol
CYP3A4, sequence (P08684 whole entry): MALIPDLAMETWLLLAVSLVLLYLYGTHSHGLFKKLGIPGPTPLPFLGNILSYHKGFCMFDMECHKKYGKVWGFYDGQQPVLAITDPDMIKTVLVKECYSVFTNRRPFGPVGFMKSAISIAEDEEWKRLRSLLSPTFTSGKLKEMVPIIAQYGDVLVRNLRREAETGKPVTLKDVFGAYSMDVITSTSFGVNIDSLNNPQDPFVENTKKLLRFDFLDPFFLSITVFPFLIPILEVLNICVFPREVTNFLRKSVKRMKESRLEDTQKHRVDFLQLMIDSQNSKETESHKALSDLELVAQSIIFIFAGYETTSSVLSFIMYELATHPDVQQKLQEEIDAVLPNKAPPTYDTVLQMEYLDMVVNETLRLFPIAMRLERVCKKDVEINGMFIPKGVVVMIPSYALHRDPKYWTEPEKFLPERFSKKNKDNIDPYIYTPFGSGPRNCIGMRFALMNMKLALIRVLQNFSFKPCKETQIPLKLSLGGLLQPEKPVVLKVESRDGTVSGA

[13] = target: hERG (Homo sapiens, UniProt Q12809); assay: Inhibition of hERG transfected in CHO cells at 30 uM by manual patch-clamp assay relative to control; format: toxicity, cell-based; conditions: CHO cells transfected with hERG
hERG, sequence (Q12809 whole entry): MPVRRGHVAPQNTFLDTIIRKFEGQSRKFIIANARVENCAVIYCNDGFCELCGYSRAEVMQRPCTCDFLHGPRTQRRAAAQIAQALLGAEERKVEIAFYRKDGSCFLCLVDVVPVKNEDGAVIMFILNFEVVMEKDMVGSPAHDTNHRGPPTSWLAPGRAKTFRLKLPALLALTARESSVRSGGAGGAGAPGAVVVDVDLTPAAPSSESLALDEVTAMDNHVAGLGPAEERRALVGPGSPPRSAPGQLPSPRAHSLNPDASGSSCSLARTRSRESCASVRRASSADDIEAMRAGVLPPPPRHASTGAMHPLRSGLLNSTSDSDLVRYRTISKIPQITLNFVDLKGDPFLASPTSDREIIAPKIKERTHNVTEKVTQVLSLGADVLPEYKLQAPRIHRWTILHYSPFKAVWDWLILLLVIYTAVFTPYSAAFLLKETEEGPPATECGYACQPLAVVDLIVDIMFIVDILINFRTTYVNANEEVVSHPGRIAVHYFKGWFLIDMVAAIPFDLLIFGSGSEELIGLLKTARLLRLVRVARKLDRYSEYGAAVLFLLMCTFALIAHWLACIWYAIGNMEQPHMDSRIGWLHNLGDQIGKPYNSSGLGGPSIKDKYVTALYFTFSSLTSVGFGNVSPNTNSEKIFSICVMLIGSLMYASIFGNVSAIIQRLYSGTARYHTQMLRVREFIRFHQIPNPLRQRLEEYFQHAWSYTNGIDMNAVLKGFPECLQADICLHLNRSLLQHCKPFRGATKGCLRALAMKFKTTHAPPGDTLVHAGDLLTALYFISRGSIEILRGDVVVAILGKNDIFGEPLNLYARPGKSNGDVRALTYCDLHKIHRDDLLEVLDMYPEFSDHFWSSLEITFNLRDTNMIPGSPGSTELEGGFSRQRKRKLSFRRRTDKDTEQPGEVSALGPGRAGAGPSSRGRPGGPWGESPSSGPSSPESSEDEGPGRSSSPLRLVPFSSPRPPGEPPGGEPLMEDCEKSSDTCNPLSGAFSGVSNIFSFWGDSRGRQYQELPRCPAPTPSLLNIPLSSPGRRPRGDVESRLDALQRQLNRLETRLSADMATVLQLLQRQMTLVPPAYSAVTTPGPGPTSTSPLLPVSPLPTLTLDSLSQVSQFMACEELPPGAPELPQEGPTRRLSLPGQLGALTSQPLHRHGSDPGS

[14] = Stability in human liver microsomes assessed as compound remaining at […] preincubated for 5 mins followed by NADPH addition and measured after 5 mins by LC-MS/MS analysis; format: ADME, Microsome; conditions: time 10 min, read-out: Stability
[15] = Stability in human liver microsomes assessed as compound remaining at […] preincubated for 5 mins followed by NADPH addition and measured after 15 mins by LC-MS/MS analysis; format: ADME, Microsome; conditions: time 20 min, read-out: Stability
[16] = Stability in human liver microsomes assessed as compound remaining at […] preincubated for 5 mins followed by NADPH addition and measured after 30 mins by LC-MS/MS analysis; format: ADME, Microsome; conditions: time 35 min, read-out: Stability
[17] = Stability in rat liver microsomes assessed as compound remaining at […] preincubated for 5 mins followed by NADPH addition and measured after 30 mins by LC-MS/MS analysis; format: ADME, Microsome; conditions: time 35 min, read-out: Stability
[18] = Stability in mouse liver microsomes assessed as compound remaining at […] preincubated for 5 mins followed by NADPH addition and measured after 5 mins by LC-MS/MS analysis; format: ADME, Microsome; conditions: time 10 min, read-out: Stability
[19] = Stability in mouse liver microsomes assessed as compound remaining at […] preincubated for 5 mins followed by NADPH addition and measured after 15 mins by LC-MS/MS analysis; format: ADME, Microsome; conditions: time 20 min, read-out: Stability
[20] = Stability in mouse liver microsomes assessed as half-life at […] preincubated for 5 mins followed by NADPH addition and measured upto 45 mins by LC-MS/MS analysis; format: ADME, Microsome; conditions: time < 50 min
[21] = C0 in ICR mouse at 1 mg/kg, iv measured after 24 hrs by LC-MS/MS analysis; format: ADME, organism-based; conditions: in vivo
[22] = AUC (0 to t) in ICR mouse at 1 mg/kg, iv measured after 24 hrs by LC-MS/MS analysis; format: ADME, organism-based; conditions: in vivo
[23] = Volume of distribution at steady state in ICR mouse at 1 mg/kg, iv measured after 24 hrs by LC-MS/MS analysis; format: ADME, organism-based; conditions: in vivo
[24] = Clearance in ICR mouse at 1 mg/kg, iv measured after 24 hrs by LC-MS/MS analysis; format: ADME, organism-based; conditions: in vivo
[25] = tested on: JeKo-1; assay: Induction of apoptosis in human JeKo-1 cells assessed as viable cells at 0.25 uM incubated for 48 hrs by Annexin-V/FITC and PI staining based flow cytometric analysis (reference value: 94.1%); format: functional; conditions: read-out: Activity
[26] = tested on: JeKo-1; assay: Induction of apoptosis in human JeKo-1 cells assessed as early apoptotic cells at 0.25 uM incubated for 48 hrs by Annexin-V/FITC and PI staining based flow cytometric analysis (reference value: […]); format: functional
[27] = tested on: JeKo-1; assay: Induction of apoptosis in human JeKo-1 cells assessed as late apoptotic cells at 0.5 uM incubated for 48 hrs by Annexin-V/FITC and PI staining based flow cytometric analysis (reference value: 3.66%); format: functional
[28] = tested on: JeKo-1; assay: Induction of apoptosis in human JeKo-1 cells assessed as viable cells at 1 uM incubated for 48 hrs by Annexin-V/FITC and PI staining based flow cytometric analysis (reference value: 94.1%); format: functional; conditions: read-out: Activity
[29] = tested on: JeKo-1; assay: Induction of apoptosis in human JeKo-1 cells assessed as early apoptotic cells at 1 uM incubated for 48 hrs by Annexin-V/FITC and PI staining based flow cytometric analysis (reference value: […]); format: functional
[30] = tested on: JeKo-1; assay: Induction of apoptosis in human JeKo-1 cells assessed as late apoptotic cells at 1 uM incubated for 48 hrs by Annexin-V/FITC and PI staining based flow cytometric analysis (reference value: 3.66%); format: functional
[31] = tested on: JeKo-1; assay: Induction of apoptosis in human JeKo-1 cells assessed as necrotic cells at 1 uM incubated for 48 hrs by Annexin-V/FITC and PI staining based flow cytometric analysis (reference value: 1.05%); format: functional
[32] = Inhibition of PI3K/AKT/mTOR signaling in human JeKo-1 cells assessed as decrease in AKT phosphorylation at S473 residue at 0.25 uM incubated for 24 hrs by Western blot analysis; format: cell-based
[33] = tested on: JeKo-1; assay: Upregulation of tubulin acetylation in human JeKo-1 cells at 0.25 to 1 uM incubated for 24 hrs by Western blot analysis; format: functional, cell-based; conditions: dose 0.25-1 µM

Compound: COc1nc(-c2ccc(NC(=O)Nc3ccc(C(=O)NCCCCCC(=O)Nc4ccccc4N)cc3)cc2)nc(N2CCOCC2)n1
- IC50 [1]: 443 nM
- IC50 [2]: > 10000 nM
- IC50 [3]: > 10000 nM
- IC50 [4]: > 10000 nM
- IC50 [5]: 95.4 nM
- IC50 [6]: 2900 nM
- IC50 [7]: 900 nM
- IC50 at 48 h [8]: > 100000 nM
- Ratio IC50 [9]: 2
- inhibition at 10 µM [10]: 35.6%
- inhibition at 10 µM [11]: 37.4%
- inhibition at 10 µM [12]: 32.5%
- inhibition at 30 µM [13]: 15.2%
- remaining at 5 min [14]: 83.8%
- remaining at 0.25 h [15]: 62.6%
- remaining at 0.5 h [16]: 46.9%
- remaining at 0.5 h [17]: 46.9%
- remaining at 5 min [18]: 94%
- remaining at 0.25 h [19]: 65.8%
- half-life [20]: 26.9 min
- C0 at 24 h [21]: 13700 ng/mL
- AUC(0-t) at 24 h [22]: 2700 ng·h/mL
- Vdss [23]: 0.719 L/kg
- clearance [24]: 6.02 mL/min/kg
- viability at 0.25 µM [25]: 78.5%
- Activity [26]: 5.73%
- Activity [27]: 32.9%
- viability at 1 µM [28]: 3.29%
- Activity [29]: 26.1%
- Activity [30]: 70.4%
- Activity [31]: 0.17%
- inhibition [32]: Active
- Activity [33]: inactive
